In patent US12329755B2, “Bromodomain inhibitors to target therapy-resistant cancer” (University of Tennessee Research Foundation, priority 2019, dated 2025):

Key:
X16 BTIC = X16 BTIC mouse flank xenografts; assay type: in vivo, mice; details: combined with TMZ, 8 weeks
Protocol: FIG. 1F is a graph showing the effect of temozolomide (TMZ) on the tumorigenicity of control (black portion of bars) and Brahma-related gene-1-knock-down (BRG1-KD) (grey portion of bars) brain-tumor initiating cells (BTICs) after injection of 10^6 tumor cells into the flanks of immunodeficient mice. Live animal imaging preformed at weekly intervals. After confirming tumor initiation by live animal imaging, mice were treated with TMZ by interperitoneal (IP) injection (10 milligrams per kilogram (mg/kg) on alternate days). The reduction in tumor volume was calculated at 1 week (left) and 2 weeks (right) post-treatment. *p≤0.05.
FIG. 5 is a graph showing the effect of Brahma-related gene-1 bromodomain inhibitors (BRIs), PFI-3 and the PFI-3 analogs (PAs) IV-073, IV-077, and IV-085, on the anticancer activity of temozolomide (TMZ) on brain-tumor initiating-cell (BTIC) tumor growth. BTICs (10^6 cells) from X16 glioblastoma were injected into the flanks of immunodeficient mice. After confirming tumor initiation by live animal imaging, mice were treated with PFI-3 or a PA (0.5 microgram per mouse (μg/mouse)) and TMZ (0.25 mg/mouse) by intrarperitoneal (IP) injection on alternate days. The reduction in tumor volume was calculated at 2 weeks post-treatment.
(§1) BRG1 loss sensitizes BTICs to TMZ in vitro and in vivo: Although the alkylating agent TMZ is front-line chemotherapy in the treatment of GBM, a significant clinical problem is intrinsic or adaptive resistance to TMZ.^63 To evaluate TMZ sensitivity, GBM6 or X16 BTICs were treated with 300 μM or 500 μM TMZ, and cell proliferation was determined. […] Since BRG1 has been implicated in DNA double-strand break repair,^65-67 it was hypothesized that BRG1 loss in BTICs would sensitize BTICs to TMZ. […] To determine whether BRG1-KD sensitized BTICs to TMZ in vivo, animal studies were conducted with control (scrambled shRNA) and BRG1-KD X16 BTICs injected into the flanks of NSG mice. After tumor initiation was confirmed by live animal imaging, mice were treated with TMZ. […] Thus, despite X16 BRG1-KD BTICs producing larger tumors, the tumors were sensitized to TMZ therapy.
In contrast, all mice with single drug treatment had to be euthanized because the tumors had reached […] by 3 weeks post-treatment.

GFAP = details: X16 BTICs; cited from earlier work
X16 BTICs [1] = assay: cell proliferation of X16 BTICs; assay type: cell-based, human; details: PFI-3 alone
Protocol: FIG. 1A is a pair of graphs showing the effect of temozolomide (TMZ) on the proliferation of brain-tumor initiating cells (BTICs) obtained from two independent glioblastoma tumors, GBM6 (left) and X16 (right). Relative proliferation is shown for cells treated with 300 micromolar (μM) TMZ or 600 μM TMZ, as well as for untreated cells. *p≤0.05.
as §1, with “therapy. […]” for “therapy.”

BTICs = details: cited from earlier work
[2] = system: cancer cell lines (lung, synovial sarcoma, leukemia, and rhabdoid tumor cells); details: panel of cancer cell lines; cited from earlier work
X16 BTICs [3] = details: cited from earlier work
[4] = system: LN229 TMZ-resistant glioma cell line; assay: IncuCyte live cell imaging proliferation assay; assay type: cell-based
Protocol: (§2) FIG. 2A is a graph showing relative growth of temozolomide (TMZ)-resistant glioma cells (LN229 cells) alone (control); after treatment with 100 micromolar (μM) TMZ; after treatment with a Brahma-related gene-1 bromodomain inhibitor (BRI), PFI-3 (1 μM); or after treatment with both TMZ and PFI-3 (combined).
as §2, with “2B” for “2A”, “IV-073” for “PFI-3”
as §2, with “2C” for “2A”, “LN229 Temozolomide” for “temozolomide”, “cells” for “cells (LN229 cells)”, “IV-077” for “PFI-3”
as §2, with “2D” for “2A”, “LN229 Temozolomide” for “temozolomide”, “cells” for “cells (LN229 cells)”, “IV-085” for “PFI-3”
To determine whether PFI-3 (also called YH-IV-081) and its analogs (referred to herein as “PAs”) enhanced TMZ sensitivity IncuCyte live cell imaging proliferation assays (high throughput system) were performed with the LN229 TMZ-resistant glioma cell line.

[5] = molecular target: T1, GFP-tagged bromodomain of BRG1 (GFP-BRG1 BRD) (Homo sapiens, UniProt P51532); assay: nuclear localization of fluorescently tagged BRG1 bromodomain in MT330 GBM cells; assay type: cell-based; details: PFI-3 10 or 30 μM; IV-073 5, 10 or 30 μM; compared to DMSO
T1 construct: a fluorescently tagged bromodomain of BRG1 expressed in MT330 GBM cells; expressed in transfected cells; host or cells: MT330 GBM cells
T1 sequence (P51532 1453-1564 limits assumed): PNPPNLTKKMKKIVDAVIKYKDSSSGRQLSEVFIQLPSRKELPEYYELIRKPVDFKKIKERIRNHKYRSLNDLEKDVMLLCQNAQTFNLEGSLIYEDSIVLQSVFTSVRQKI
Description: FIG. 4 is a series of fluorescence microscopy images showing the effects of Brahma-related gene-1 bromodomain inhibitors (BRIs) on the nuclear localization of a green fluorescent protein (GFP)-tagged bromodomain of Brahma-related gene-1 (GFP-BRG1 BRD).
The effects of PFI-3 and its analogs on the nuclear localization of a fluorescently tagged bromodomain of BRG1 expressed in MT330 GBM cells was studied. In the control samples, the fluorescent bromodomain is localized to the nucleus. However, an inhibitor displaces it from the nucleus and the fluorescence signal markedly decreases because it is degraded in the cytoplasm.

embryonic stem cell = details: cited from earlier work

## O=C(/C=C/N1C[C@H]2C[C@@H]1CN2c1ccccn1)c1ccccc1O [PFI-3, (E)-1-(2-hydroxyphenyl)-3-((1R,4R)-5-(pyridin-2-yl)-2,5-diazabicyclo[2.2.1]heptan-2-yl)prop-2-en-1-one]
X16 BTIC
  tumors after treatment for 8 weeks: less dramatic effect
GFAP
  GFAP protein expression: upregulated GFAP protein expression
X16 BTICs [1]
  effect on BTIC proliferation: only a slight growth inhibitory effect
BTICs; PFI-3 alone
  effect on BTIC proliferation: little effect on BTIC proliferation
BTICs
  stemness of BTICs: inhibits the stemness of BTICs
BTICs; in vitro
  sensitization of BTICs to DNA alkylating agents: sensitizes BTICs to DNA alkylating agents
[2]
  proliferation or tumorgenicity: not to inhibit the proliferation or tumorgenicity
X16 BTICs [3]; X16 BTICs, PFI-3 treatment
  sensitization to Carmustine: sensitized
X16 BTICs [3]; combination of TMZ and PFI-3, versus either agent alone
  effect on X16 BTIC proliferation: markedly greater effect on X16 BTIC proliferation than either agent alone
[4]; BRI 1 μM combined with 100 μM TMZ
  sensitization to TMZ: potently sensitized
[4]; BRI alone (1 μM)
  effect on cell growth: relatively minor effects on cell growth
[5]
  displacement of the BRG1 bromodomain from the nucleus: displaces the BRG1 bromodomain from the nucleus
Embryonic stem cell
  embryonic stem cell phenotype: inhibits the embryonic stem cell phenotype
